According to patent publication EP0210342A2, “Medicament containing pyridinones having an antithrombotic activity” (Dr. Karl Thomae GmbH, priority 1985, dated 1987):

Tests used:
Thrombusbildung = test: Stenosis-induced spontaneous coronary thrombus formation in anaesthetised dogs (shake loose, Folts); type: in vivo, Hunde; details: for Verminderung der Häufigkeit der Spontanverschlüsse: 1 mg/kg i.v.; for antithrombotische Wirkung: 1 mg/kg
[1] = Acute toxicity in mice (LD50, 14 days observation); parameters: species or system Mäusen; details: mouse, in vivo, observation 14 days
Description: Die akute Toxizität der zu untersuchenden Substanzen wurde an Mäusen (Beobachtungszeit: 14 Tage) nach oraler bzw. intravenöser Gabe bestimmt. Es wurde die LD₅₀ aus dem Prozentsatz der Tiere berechnet, die nach verschiedenen Dosen innerhalb der Beobachtungszeit verstarben: […]

COc1ccc2nc(-c3ccc(OCC(O)CNC(C)(C)C)cc3)n(C)c(=O)c2c1 (single isomer, unassigned; (-)) [Verbindung C, (-)-2-2[4-(2-Hydroxy-3-tert.butylamino-propoxy)-phenyl]-3-methyl-6-methoxy-3,4-dihydro-chinazolin-4-on]
Verminderung der Häufigkeit der Spontanverschlüsse (Thrombusbildung; 30th to 60th minute after substance): 73%
Verminderung der Häufigkeit der Spontanverschlüsse (Thrombusbildung; first 30 min after substance): 55%

CC(C)NCC(O)COc1ccc(CC(N)=O)cc1 (stereo not drawn) [Atenolol, reference compound]
antithrombotische Wirkung (Thrombusbildung): nicht antithrombotisch

CC(C)NCC(O)COc1cccc2ccccc12 (stereo not drawn) [Propranolol, reference compound]
antithrombotische Wirkung (Thrombusbildung): nicht antithrombotisch

COc1ccc2nc(-c3ccc(OCC(O)CNC(C)(C)C)cc3)n(C)c(=O)c2c1 (stereo not drawn) [Verbindung B, 2-[4-(2-Hydroxy-3-tert.butylamino-propoxy)-phenyl]-3-methyl-6-methoxy-3,4-dihydro-chinazolin-4-on]
LD50 at 336 h ([1]; iv): 75 mg/kg
LD50 at 336 h ([1]; po): 750 mg/kg
